According to patent US6803466B1, “HIV/FIV protease inhibitors having a small P3 residue” (The Scripps Research Institute, priority 1997, dated 2004):

Experiments:
wild type HIV PR = assay: Cell culture IC90, wild type; assay type: cell-based; settings: Human immunodeficiency virus 1, read-out: IC90 against the wild type HIV PR
82F/84V mutant = assay: Cell culture IC90, 82F/84V mutant; assay type: cell-based, HIV; settings: Human immunodeficiency virus 1, read-out: IC90 against the 82F/84V mutant
[1] = tested on: SIVmac251 in 174×CEM cells; assay: Ex vivo inhibitor analysis against SIV, p27 antigen ELISA; assay type: cell-based
Protocol: The results from tissue culture assays against SIV (FIG. 14) and HIV (FIG. 14) were equally encouraging. […] The effectiveness of compound 1200 against HIV was measured by determining the percentage of viable cells remaining in culture over time in the presence and absence of drug (FIG. 14). In the control, HIV caused formation of multinucleated syncytia and 100% cell death by 9 days post infection. However, the cells cultured with 1 μg/ml (1.1 μM) or 5 μg/ml (5.5 μM) of inhibitor 1200 remained 100% viable after 1 month, identical to results obtained in the absence of virus infection. To test for virus in these cultures, supernatants were removed and added to 1×10^5 uninfected MT-2 cells after a 1:5 dilution with fresh CM. […] In contrast, when 2×10^5 infected MT-2 cells that had been treated with compound 1200 for two weeks were removed and replated in fresh medium with or without compound 1200 only MT-2 cells cultured in the absence of compound 1200 were dead within 4 days (data not shown). […] Cultures are being carried continuously in the presence of compound 12 to look for resistance development. Tests are also underway to determine the level of efficacy of the compound against a defined panel of drug-resistant HIVs. […]

[2] = tested on: HIV WEAU-1.6 in MT-2 cells; assay: microbe, parasite or virus in culture; assay type: cell-based
Protocol: The results from tissue culture assays against SIV (FIG. 14) and HIV (FIG. 14) were equally encouraging. […] The effectiveness of compound 1200 against HIV was measured by determining the percentage of viable cells remaining in culture over time in the presence and absence of drug (FIG. 14). In the control, HIV caused formation of multinucleated syncytia and 100% cell death by 9 days post infection. However, the cells cultured with 1 μg/ml (1.1 μM) or 5 μg/ml (5.5 μM) of inhibitor 1200 remained 100% viable after 1 month, identical to results obtained in the absence of virus infection. To test for virus in these cultures, supernatants were removed and added to 1×10^5 uninfected MT-2 cells after a 1:5 dilution with fresh CM. […] In contrast, when 2×10^5 infected MT-2 cells that had been treated with compound 1200 for two weeks were removed and replated in fresh medium with or without compound 1200 only MT-2 cells cultured in the absence of compound 1200 were dead within 4 days (data not shown). […] Cultures are being carried continuously in the presence of compound 12 to look for resistance development. Tests are also underway to determine the level of efficacy of the compound against a defined panel of drug-resistant HIVs.
WEAU-1.6, a kind gift of George Shaw, University of Alabama (^18), a CXCR4 utilizing isolate, was used for all studies. 2×10^5 MT-2 cells in 0.1 ml were infected for 4 hr, at 37° C., using WEAU-1.6 at 25 TCID50. Before establishing cultures for inhibitor assessment infected cells were washed 3 times with complete medium (CM), which was RPMI-1640 supplemented with 10% FBS, […], 200 mM L-glutamine, and […] of gentamicin sulfate, to remove any unbound virus. For inhibitor assessment cultures were established in duplicate or triplicate using 5×10^4 infected cells and 1×10^5 uninfected cells in a total volume of 1.5 mls in Costar 6 well-plates. Once cultures were established they were split 1:4 every 3 days, and given fresh CM. Compound 12 (from a 10 mg/ml stock in DMSO) was added at […] at initiation of the culture and after each split. For testiing of the antiviral efficacy of compound 1200 in MT-2 were assessed every day using a Olympus (model) inverted microscope equipped with phase contrast objectives. When MT-2 cells are infected with WEAU-1.6 they form syncytia and die with in 24 hours, events easily discernible visually. A total of 200 cells were counted in each well, and when syncytia were noted, cells were removed and tested for viability by using trypan-blue. Results are expressed as the average of viable cells.

feline T-cells = assay: Toxicity to feline T-cells in culture; assay type: cell-based
Protocol: For FIV, the assays were performed in FIV-infected feline T-cells which were cultured in the presence of compound 1200 at different concentrations over the course of 1 month. Each data in FIG. 14 represents the amount of pelletable FIV reverse transcriptase in the culture supernatant. […] Furthermore, this inhibitor was not toxic to feline T-cells. After one month, the drug-treated cultures were split and replated with and without compound 1200.
The lymphocytic cell line 104-C1 (provided by C. Grant) was used as the target for infection. Cells were cultured in RPMI-1640 media supplemented with 10% FBS, 200 μM L-Glutamine, 1×MEM-Vitamins, 100 μM Sodium Pyruvate, 1×Non-Essential Amino Acids, 5.5×10−5M b-ME, 50 μg/ml Gentamicin, 50 U/ml human recombinant Interleukin-2 (provided by Hoffmann-LaRoche) and 7.5 μg/ml Concanavalin-A. For inhibitor assessment, 5×10^6 cells were infected with FIV-PPR (4×105 RT units) in 1 mL culture for 2 hr at 37° C. No virus and virus only controls were incubated in a similar manner. The cells were then washed with Hanks-buffered saline solution (HBSS) and resuspended in 10 ml of complete medium. […] The culture supernatants were monitored for the presence of pelletable reverse transcriptase activity at weekly intervals, as follows. […] The paper was then dried and counted on a scintillation counter.

uninfected 174×CEM cells = assay: Effect on uninfected cells of the SIV assay; assay type: cell-based; settings: 10, 1.0, 0.1 and 0.001 μg/ml
Protocol: Cells were acutely infected with approximately 400 TCID50 units of SIVmac251 for 90 min at 37° C. The cells were collected by centrifugation, washed twice with medium to remove free virus, then plated in 0.45 ml medium in 48-well tissue culture plates, at 10^5 cells per well. Compound 1200, prepared as a 10 mg/ml stock in DMSO, was then added to final concentrations of 10, 1.0, 0.1, and 0.001 μg/ml final concentrations, in triplicate cultures. Triplicate control cultures received medium only.

MT-2 cells = assay: Toxicity to host cells of the HIV assay; assay type: cell-based
Protocol: The results from tissue culture assays against SIV (FIG. 14) and HIV (FIG. 14) were equally encouraging. […] The effectiveness of compound 1200 against HIV was measured by determining the percentage of viable cells remaining in culture over time in the presence and absence of drug (FIG. 14). In the control, HIV caused formation of multinucleated syncytia and 100% cell death by 9 days post infection. However, the cells cultured with 1 μg/ml (1.1 μM) or 5 μg/ml (5.5 μM) of inhibitor 1200 remained 100% viable after 1 month, identical to results obtained in the absence of virus infection. To test for virus in these cultures, supernatants were removed and added to 1×10^5 uninfected MT-2 cells after a 1:5 dilution with fresh CM. […]
WEAU-1.6, a kind gift of George Shaw, University of Alabama (^18), a CXCR4 utilizing isolate, was used for all studies. […] For testiing of the antiviral efficacy of compound 1200 in MT-2 were assessed every day using a Olympus (model) inverted microscope equipped with phase contrast objectives. […] A total of 200 cells were counted in each well, and when syncytia were noted, cells were removed and tested for viability by using trypan-blue. Results are expressed as the average of viable cells.

[3] = Human immunodeficiency virus 1, MT2, read-out: viable cells remaining in culture

CC(C)[C@H](NC(=O)[C@H](C)NC(=O)OCc1ccccc1)C(=O)N[C@@H](Cc1ccccc1)[C@@H](O)[C@H](O)[C@H](Cc1ccccc1)NC(=O)[C@@H](NC(=O)[C@H](C)NC(=O)OCc1ccccc1)C(C)C [Compound 1b]
IC90 (wild type HIV PR): 100 nM
IC90 (82F/84V mutant): 900 nM
inhibition of SIV infection in tissue culture (in words) [1]: strongly inhibits
SIV virus expression, p27 antigen in culture supernatant ([1]; 1 μg/ml): near background
inhibition of HIV infection in tissue culture (in words) [2]: strongly inhibits
free virus in supernatants, transfer to uninfected MT-2 cells ([2]; 1:5 dilution, after 3 weeks): remained uninfected
viability at 1.1 µM [2, 3]: 100%
viability at 5.5 µM [2, 3]: 100%
toxicity to cells (feline T-cells): not toxic
effects on uninfected cells (uninfected 174×CEM cells): no effects noted
toxicity to host cells (MT-2 cells): minimal toxicity
